Data reported in ChEMBL document CHEMBL1201862, “PubChem BioAssay data set” (2004).
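Growth conditions: 96-well plates. Treatment: test compound, 48 hours, 5 concentrations. Analysis: linear interpolation between bracketing concentrations; unreached endpoints set to highest concentration. GI50 marks 50% less growth.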 Active and inactive are the calls of the source. Cut-off read from the data, not from the text of the source: active = GI50 up to about 1.1 µM and inactive = higher.

Assays:
Test in all cases: growth of human tumour cells (NCI), 48 h
HCC 2998 = system: HCC 2998
NCI-H522 = system: NCI-H522
RPMI-8226 = system: RPMI-8226
Hs-578T = system: Hs-578T
SF-539 = system: SF-539
CCRF-CEM = system: CCRF-CEM
SF-268 = system: SF-268
A498 = system: A498
MDA-MB-231 = system: MDA-MB-231
UACC-257 = system: UACC-257
OVCAR-8 = system: OVCAR-8
RXF 393 = system: RXF 393
HCT-116 = system: HCT-116
SF-295 = system: SF-295
NCI-H226 = system: NCI-H226
ACHN = system: ACHN
HOP-62 = system: HOP-62
Malme-3M = system: Malme-3M
HCT-15 = system: HCT-15
LOX IMVI = system: LOX IMVI
M14 = system: M14
MOLT-4 = system: MOLT-4
IGROV-1 = system: IGROV-1
786-0 = system: 786-0
A549 = system: A549
PC-3 = system: PC-3
SN12C = system: SN12C
SK-MEL-28 = system: SK-MEL-28
OVCAR-4 = system: OVCAR-4
U-251 = system: U-251
SNB-75 = system: SNB-75
NCI-H460 = system: NCI-H460
EKVX = system: EKVX
UO-31 = system: UO-31
SK-MEL-5 = system: SK-MEL-5
SR = system: SR
SNB-19 = system: SNB-19
SW-620 = system: SW-620
NCI/ADR-RES = system: NCI/ADR-RES
OVCAR-3 = system: OVCAR-3
MDA-MB-435 = system: MDA-MB-435
SK-OV-3 = system: SK-OV-3
T47D = system: T47D
SK-MEL-2 = system: SK-MEL-2
HOP-92 = system: HOP-92
COLO 205 = system: COLO 205
BT-549 = system: BT-549
HL-60 = system: HL-60
MCF7 = system: MCF7
DU-145 = system: DU-145
CAKI-1 = system: CAKI-1
NCI-H23 = system: NCI-H23
K562 = system: K562
MDA-N = system: MDA-N
OVCAR-5 = system: OVCAR-5
HT-29 = system: HT-29
TK-10 = system: TK-10
KM12 = system: KM12
UACC-62 = system: UACC-62

## COC(=O)C1(SC)C2CCC3C2CCC31 (stereo not given)
HCC 2998
  GI50: > 100 µM (inactive)
NCI-H522
  GI50: > 100 µM (inactive)
RPMI-8226
  GI50: > 100 µM (inactive)
Hs-578T
  GI50: > 100 µM (inactive)
SF-539
  GI50: > 100 µM (inactive)
CCRF-CEM
  GI50: > 100 µM (inactive)
SF-268
  GI50: > 100 µM (inactive)
A498
  GI50: > 100 µM (inactive)
MDA-MB-231
  GI50: > 100 µM (inactive)
UACC-257
  GI50: > 100 µM (inactive)
OVCAR-8
  GI50: > 100 µM (inactive)
RXF 393
  GI50: > 100 µM (inactive)
HCT-116
  GI50: > 100 µM (inactive)
SF-295
  GI50: > 100 µM (inactive)
NCI-H226
  GI50: > 100 µM (inactive)
ACHN
  GI50: > 100 µM (inactive)
HOP-62
  GI50: > 100 µM (inactive)
Malme-3M
  GI50: > 100 µM (inactive)
HCT-15
  GI50: > 100 µM
LOX IMVI
  GI50: > 100 µM (inactive)
M14
  GI50: > 100 µM (inactive)
MOLT-4
  GI50: > 100 µM (inactive)
IGROV-1
  GI50: > 100 µM (inactive)
786-0
  GI50: > 100 µM (inactive)
A549
  GI50: > 100 µM (inactive)
PC-3
  GI50: > 100 µM (inactive)
SN12C
  GI50: > 100 µM (inactive)
SK-MEL-28
  GI50: > 100 µM (inactive)
OVCAR-4
  GI50: > 100 µM (inactive)
U-251
  GI50: > 100 µM (inactive)
SNB-75
  GI50: > 100 µM (inactive)
NCI-H460
  GI50: > 100 µM (inactive)
EKVX
  GI50: > 100 µM (inactive)
UO-31
  GI50: > 100 µM (inactive)
SK-MEL-5
  GI50: > 100 µM (inactive)
SR
  GI50: > 100 µM (inactive)
SNB-19
  GI50: > 100 µM (inactive)
SW-620
  GI50: > 100 µM (inactive)
NCI/ADR-RES
  GI50: > 100 µM (inactive)
OVCAR-3
  GI50: > 100 µM (inactive)
MDA-MB-435
  GI50: > 100 µM (inactive)
SK-OV-3
  GI50: > 100 µM (inactive)
T47D
  GI50: > 100 µM (inactive)
SK-MEL-2
  GI50: > 100 µM (inactive)
HOP-92
  GI50: > 100 µM (inactive)
COLO 205
  GI50: > 100 µM (inactive)
BT-549
  GI50: > 100 µM (inactive)
HL-60
  GI50: > 100 µM (inactive)
MCF7
  GI50: > 100 µM (inactive)
DU-145
  GI50: > 100 µM (inactive)
CAKI-1
  GI50: > 100 µM (inactive)
NCI-H23
  GI50: > 100 µM (inactive)
K562
  GI50: > 100 µM (inactive)
MDA-N
  GI50: > 100 µM (inactive)
OVCAR-5
  GI50: > 100 µM (inactive)

## COC(=O)C1C(O)C(C)C(O)C(C)C=C(C)C2=C3C(=C(C)C(=O)c4c(O)c(c(C)c(OC(C)=O)c43)NC(=O)C(C)=C/C=C\C(C)C(O)C(C)C1O)OCO2 (stereo not given)
HT-29
  GI50: 27.7 µM (inactive)
HCC 2998
  GI50: 34.3 µM (inactive)
NCI-H522
  GI50: 16 µM (inactive)
RPMI-8226
  GI50: 18.4 µM (inactive)
Hs-578T
  GI50: 61.2 µM (inactive)
SF-539
  GI50: 37.8 µM (inactive)
CCRF-CEM
  GI50: 23.6 µM (inactive)
SF-268
  GI50: 16.1 µM (inactive)
A498
  GI50: 29.4 µM (inactive)
MDA-MB-231
  GI50: 23.8 µM (inactive)
UACC-257
  GI50: 13.4 µM (inactive)
OVCAR-8
  GI50: 27.7 µM (inactive)
RXF 393
  GI50: 24.9 µM (inactive)
HCT-116
  GI50: 31.8 µM (inactive)
SF-295
  GI50: 51.6 µM (inactive)
NCI-H226
  GI50: 55.2 µM (inactive)
ACHN
  GI50: 27 µM (inactive)
HOP-62
  GI50: > 100 µM (inactive)
Malme-3M
  GI50: 16.2 µM (inactive)
HCT-15
  GI50: 22.4 µM
LOX IMVI
  GI50: 17.1 µM (inactive)
M14
  GI50: 25.2 µM (inactive)
MOLT-4
  GI50: 15.6 µM (inactive)
TK-10
  GI50: 56.1 µM (inactive)
IGROV-1
  GI50: 42.1 µM (inactive)
786-0
  GI50: 57.1 µM (inactive)
A549
  GI50: 54 µM (inactive)
PC-3
  GI50: 22.8 µM (inactive)
SN12C
  GI50: 37.4 µM (inactive)
SK-MEL-28
  GI50: 22.3 µM (inactive)
OVCAR-4
  GI50: 25.3 µM (inactive)
U-251
  GI50: 45.4 µM (inactive)
SNB-75
  GI50: 12.4 µM (inactive)
NCI-H460
  GI50: 67.5 µM (inactive)
EKVX
  GI50: 34.3 µM (inactive)
UO-31
  GI50: 25.9 µM (inactive)
SK-MEL-5
  GI50: 19.9 µM (inactive)
SR
  GI50: 19.7 µM (inactive)
SNB-19
  GI50: > 100 µM (inactive)
SW-620
  GI50: 23.9 µM (inactive)
NCI/ADR-RES
  GI50: 40.5 µM (inactive)
OVCAR-3
  GI50: 18.6 µM (inactive)
KM12
  GI50: 31.9 µM (inactive)
MDA-MB-435
  GI50: 15.7 µM (inactive)
UACC-62
  GI50: 28 µM (inactive)
SK-OV-3
  GI50: > 100 µM (inactive)
T47D
  GI50: 31 µM (inactive)
SK-MEL-2
  GI50: 23.7 µM (inactive)
HOP-92
  GI50: 14.9 µM (inactive)
COLO 205
  GI50: 19.9 µM (inactive)
BT-549
  GI50: 19.6 µM (inactive)
HL-60
  GI50: 17.8 µM (inactive)
MCF7
  GI50: 25.3 µM (inactive)
DU-145
  GI50: 57.7 µM (inactive)
NCI-H23
  GI50: 24.9 µM (inactive)
K562
  GI50: 18.6 µM (inactive)
MDA-N
  GI50: 16.9 µM (inactive)
OVCAR-5
  GI50: > 100 µM (inactive)

## CCOC(=O)CCC(NC(=O)N1CCN(c2c(C)nc(C)nc2O)CC1)C(=O)OCC (stereo not given)
HT-29
  GI50: > 100 µM (inactive)
HCC 2998
  GI50: > 100 µM (inactive)
NCI-H522
  GI50: > 100 µM (inactive)
RPMI-8226
  GI50: > 100 µM (inactive)
Hs-578T
  GI50: > 100 µM (inactive)
SF-539
  GI50: > 100 µM (inactive)
CCRF-CEM
  GI50: > 100 µM (inactive)
SF-268
  GI50: > 100 µM (inactive)
A498
  GI50: > 100 µM (inactive)
MDA-MB-231
  GI50: > 100 µM (inactive)
UACC-257
  GI50: > 100 µM (inactive)
OVCAR-8
  GI50: > 100 µM (inactive)
RXF 393
  GI50: > 100 µM (inactive)
HCT-116
  GI50: > 100 µM (inactive)
SF-295
  GI50: > 100 µM (inactive)
NCI-H226
  GI50: > 100 µM (inactive)
ACHN
  GI50: > 100 µM (inactive)
HOP-62
  GI50: > 100 µM (inactive)
Malme-3M
  GI50: > 100 µM (inactive)
HCT-15
  GI50: > 100 µM
LOX IMVI
  GI50: > 100 µM (inactive)
M14
  GI50: > 100 µM (inactive)
MOLT-4
  GI50: > 100 µM (inactive)
TK-10
  GI50: > 100 µM (inactive)
IGROV-1
  GI50: > 100 µM (inactive)
786-0
  GI50: > 100 µM (inactive)
A549
  GI50: > 100 µM (inactive)
PC-3
  GI50: > 100 µM (inactive)
SN12C
  GI50: > 100 µM (inactive)
SK-MEL-28
  GI50: > 100 µM (inactive)
OVCAR-4
  GI50: > 100 µM (inactive)
U-251
  GI50: > 100 µM (inactive)
SNB-75
  GI50: < 0.01 µM (active)
NCI-H460
  GI50: > 100 µM (inactive)
EKVX
  GI50: > 100 µM (inactive)
UO-31
  GI50: > 100 µM (inactive)
SR
  GI50: > 100 µM (inactive)
SNB-19
  GI50: > 100 µM (inactive)
SW-620
  GI50: > 100 µM (inactive)
NCI/ADR-RES
  GI50: > 100 µM (inactive)
OVCAR-3
  GI50: > 100 µM (inactive)
KM12
  GI50: > 100 µM (inactive)
MDA-MB-435
  GI50: > 100 µM (inactive)
UACC-62
  GI50: > 100 µM (inactive)
SK-OV-3
  GI50: > 100 µM (inactive)
T47D
  GI50: > 100 µM (inactive)
HOP-92
  GI50: > 100 µM (inactive)
COLO 205
  GI50: > 100 µM (inactive)
BT-549
  GI50: > 100 µM (inactive)
HL-60
  GI50: > 100 µM (inactive)
MCF7
  GI50: > 100 µM (inactive)
DU-145
  GI50: > 100 µM (inactive)
CAKI-1
  GI50: > 100 µM (inactive)
NCI-H23
  GI50: > 100 µM (inactive)
K562
  GI50: > 100 µM (inactive)
MDA-N
  GI50: > 100 µM (inactive)
OVCAR-5
  GI50: > 100 µM (inactive)
